Assay results reported in US4683331A, “Omega-(2,4-dihalobiphenylyl) oxo alkanoic acids” (Spofa spojene podniky pro zdravotnickou, priority 1984, dated 1987).

Key:
[1] = system: Carrageenin edema; assay: Carrageenin edema; format: in vivo; conditions: single dose
Protocol: (§1) Anti-inflammatory activity is measured according to
(§2) Carrageenin edema and Freund adjuvans edema. The assay for
Carrageenin edema was performed according to J. Winter, Proc.
Soc. Exptl. Biol. Med. Vol. 111 (1962), p 544. Single oral doses
Edema size was evaluated 1, 24, and 48
(§3) hours after administration of each compound. The assay for Free
(§4) after administration of each compound. All of the tabulated
(§5) values are statistically significant (p < 0.05) except for those

[2] = system: Freund adjuvans edema; assay: Freund adjuvans edema; format: in vivo; conditions: single dose
Protocol: as §1, §2, §3
adjuvans edema was performed according to Z. Horakova and J.
Grimova, Ceskosl. Fys. Vol. 17 (1968), p. 137. Single oral doses
The edema was evaluated 1, and 24 hours
as §4, §5

[3] = system: Carrageenin edema; conditions: J. Pharm. Sci. Vol. 66 (1977); cited from earlier work
[4] = system: adjuvant arthritis; conditions: J. Pharm. Sci. Vol. 66 (1977); cited from earlier work
[5] = in vivo; conditions: acute (short-term) toxicity
[6] = 25 mg/kg po, bracketed values not significant
[7] = 10 mg/kg po, bracketed values not significant
[8] = 100 mg/kg po, bracketed values not significant

Row | Structure (SMILES) | Carrageenin % inhibition 1 hr [1, 6] [%] | Carrageenin % inhibition 24 hr [1, 6] [%] | Carrageenin % inhibition 1 hr ([1]; 100 mg/kg po) [%] | Carrageenin % inhibition 24 hr ([1]; 100 mg/kg po) [%] | Carrageenin % inhibition 48 hr ([1]; 100 mg/kg po) [%] | Adjuvans % inhibition 1 hr ([2]; 10 mg/kg po) [%] | Adjuvans % inhibition 24 hr [2, 7] [%] | Adjuvans % inhibition 1 hr ([2]; 25 mg/kg po) [%] | Adjuvans % inhibition 24 hr [2, 6] [%] | Adjuvans % inhibition 1 hr ([2]; 100 mg/kg po) [%] | Adjuvans % inhibition 24 hr [2, 8] [%] | activity for Carrageenin edema [3] | percent inhibition for adjuvant arthritis [4] [%] | LD50 [5] [mg/kg] | Carrageenin % inhibition 48 hr ([1]; 25 mg/kg po) [%] | Adjuvans % inhibition 1 hr ([2]; 50 mg/kg po) [%] | Adjuvans % inhibition 24 hr ([2]; 50 mg/kg po) [%] | activity for adjuvant arthritis (in words) [4] | Adjuvans % inhibition 1 hr ([2]; 20 mg/kg po) [%] | Adjuvans % inhibition 24 hr ([2]; 20 mg/kg po) [%]
1 | O=C(O)CCC(=O)c1ccc(-c2ccccc2)cc1 [Compound 4] | 40 | 14 | 46 | 38 | 0 | 27 | 8 | 31 | 9 | 54 | 7 |  |  |  |  |  |  |  |  | 
2 | O=C(O)CCC(=O)c1ccc(-c2ccc(Cl)cc2)cc1 [4'-Cl-fenbufen] |  |  |  |  |  |  |  |  |  |  |  | no activity | 61 |  |  |  |  |  |  | 
3 | CC(CC(=O)c1ccc(-c2ccc(Cl)cc2Cl)cc1)C(=O)O (stereo not drawn) [Compound 1] | 27 | 54 | 35 | 73 | 58 | 37 | 38 | 40 | 46 | 45 | 55 |  |  | 450 | 58 |  |  |  |  | 
4 | CC(CC(=O)c1ccc(-c2ccc(F)cc2F)cc1)C(=O)O (stereo not drawn) [Compound 2] | 30 | 61 | 44 | 66 | 45 |  |  | 56 | 32 |  |  |  |  | 500 | 42 | 53 | 46 |  |  | 
5 | O=C(O)CCC(=O)c1ccc(-c2ccc(F)cc2)cc1 [4'-F-fenbufen] |  |  |  |  |  |  |  |  |  |  |  | 1.7 |  |  |  |  |  | no activity |  | 
6 | CC(CC(=O)c1ccc(-c2ccc(F)cc2)cc1)C(=O)O (stereo not drawn) [Compound 3] | 16 | 21 | 33 | 34 |  | 37 | 31 |  |  |  |  |  |  | 500 |  |  |  |  | 42 | 39
